Literature values as cited in patent publication US12599555B2, “Formulation” (priority 2019, dated 2026).

Conditions: administered by inhalation in the treatment of asthma

SMILES: O=C([O-])c1cc(=O)c2c(OCC(O)COc3cccc4oc(C(=O)[O-])cc(=O)c34)cccc2o1.[Na+].[Na+] [sodium cromoglicate, disodium 5,5′-[(2-hydroxytrimethylene)dioxy]bis-[4-oxo-4H-1-benzopyran-2-carboxylate]]
- bioavailability: 10-15%
